This is an account of results in the NIST ThermoML archive (doi:10.1021/je400184t).

For data set [1] the following is noted: 101 kPa, Liquid, Vibrating tube method.
Data set [2] in a line: xn = mol fraction of the nth substance listed. The conditions noted are these: 101 kPa, Liquid, Vibrating tube method, x1 = 1.

Several values for one entry are separate records, joined by “and”; a condition that tells them apart may be missing. Equal values may be shown once. ± gives the expanded uncertainty stated by the source.

In general, mass density refers to the mass of a sample divided by its volume. Turning to `NCCO` [2-aminoethan-1-ol], the figures for the mass density in data set [1] (288.15 K), in data set [1] (298.15 K) and in data set [1] (353.15 K) were 1019.87 ± 0.2 kg/m3, 1012.12 ± 0.2 kg/m3 and 968.332 ± 0.2 kg/m3, respectively.

In the case of `CCCCCCC` [heptane] + Cc1ccccc1, the mass density in data set [2] (298.15 K) worked out at 679.537 ± 0.26 kg/m3.

For `CN(CCO)CCO` [N-methyldiethanolamine], the values for the mass density in data set [1] (288.15 K), in data set [1] (298.15 K) and in data set [1] (353.15 K) were 1046.36 ± 0.21 kg/m3, 1036.81 ± 0.21 kg/m3 and 994.015 ± 0.2 kg/m3, respectively.

Take `Cc1ccccc1` [toluene]: in data set [1] (298.15 K), the mass density was determined as 862.222 ± 0.21 kg/m3.

`c1ccncc1` [pyridine] + NCCO: the results for the mass density in data set [2] (288.15 K), in data set [2] (298.15 K) and in data set [2] (353.15 K) were 988.041 ± 0.2 kg/m3, 978.145 ± 0.2 kg/m3 and 921.953 ± 0.21 kg/m3, respectively.

`c1ccncc1` [pyridine] + CN(CCO)CCO: the mass density amounted to 988.343 ± 0.2 kg/m3 in data set [2] (288.15 K), 978.086 ± 0.2 kg/m3 in data set [2] (298.15 K) and 921.952 ± 0.21 kg/m3 in data set [2] (353.15 K).

Regarding `CCCCCCC` [heptane], the mass density in data set [1] (298.15 K) is listed as 679.537 ± 0.26 kg/m3.

For the compound `c1ccncc1` [pyridine], the mass density in data set [1] (288.15 K) is 988.041 ± 0.2 kg/m3 and 988.343 ± 0.2 kg/m3; in data set [1] (298.15 K), 978.145 ± 0.2 kg/m3 and 978.086 ± 0.2 kg/m3; in data set [1] (353.15 K), 921.953 ± 0.21 kg/m3 and 921.952 ± 0.21 kg/m3.
